Measured values reported in patent US20260262643A1, “HERBICIDAL BENZOXAZINES” (FMC CORPORATION, priority 2022, published 2026).
Like-named read-outs stand apart in the source and are kept apart here.

Experiments:
[1] = system: foxtail, giant; assay: Test A postemergence; format: in vivo, Setaria faberi; conditions: Setaria faberi, post-emergence, 240 h; for pest or weed control at 125 g/ha: 125 g ai/ha; for pest or weed control at 500 g/ha: 500 g ai/ha
Summary of the method: (§1)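 Greenhouse pot test, 10 days. Compound (non-phytotoxic solvent, surfactant) sprayed on soil at seeding or on seedlings at one- to two-leaf stage. Visual injury rated 0–100 against untreated plants.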

[2] = system: ryegrass, Italian; assay: Test A preemergence; format: in vivo, Lolium multiflorum; conditions: Lolium multiflorum, pre-emergence, 240 h, read-out: Plant response rating, Ryegrass, Italian; for pest or weed control at 125 g/ha: 125 g ai/ha, visual injury after 10 days, 0 to 100 scale, 0 is no effect, 100 is complete control; for pest or weed control at 500 g/ha: 500 g ai/ha, 0 to 100 scale (0 no effect, 100 complete control), 10 days
Summary of the method: as §1

[3] = system: pigweed, palmer; assay: Test A postemergence; format: in vivo, Amaranthus palmeri; conditions: Amaranthus palmeri, post-emergence, 240 h; for pest or weed control at 125 g/ha: 125 g ai/ha; for pest or weed control at 500 g/ha: 500 g ai/ha
Summary of the method: as §1

[4] = system: barnyardgrass; assay: Test B flooded paddy test; format: in vivo, Echinochloa crus-galli; conditions: Echinochloa crus-galli, 312 h, 250 g ai/ha, Flood, 13 days, 0 to 100 scale (0 no effect, 100 complete control); read-out: Plant response rating, Barnyardgrass
Summary of the method: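 Compound is introduced into paddy water covering soil by 3 cm, treating plants that have reached two leaves. Pots are kept flooded at that depth under greenhouse conditions. Assessment at 13 days gives a 0–100 visual control score.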

[5] = system: ragweed; assay: Test A preemergence; format: in vivo, Ambrosia artemisiifolia; conditions: Ambrosia artemisiifolia, pre-emergence, 240 h, read-out: Plant response rating, Ragweed; for pest or weed control at 125 g/ha: 125 g ai/ha, visual injury after 10 days, 0 to 100 scale, 0 is no effect, 100 is complete control; for pest or weed control at 500 g/ha: 500 g ai/ha, 0 to 100 scale (0 no effect, 100 complete control), 10 days
Summary of the method: as §1

[6] = system: corn; assay: Test A preemergence; format: in vivo, Zea mays; conditions: Zea mays, pre-emergence, 240 h; for Corn plant response rating (crop injury, 0 = no effect, 100 = complete kill) at 125 g/ha: 125 g ai/ha, visual injury after 10 days, 0 to 100 scale, 0 is no effect, 100 is complete control; for Corn plant response rating (crop injury, 0 = no effect, 100 = complete kill) at 500 g/ha: 500 g ai/ha, 0 to 100 scale (0 no effect, 100 complete control), 10 days
Summary of the method: as §1

[7] = system: foxtail, giant; assay: Test A preemergence; format: in vivo, Setaria faberi; conditions: Setaria faberi, pre-emergence, 240 h, read-out: Plant response rating, Foxtail, Giant; for pest or weed control at 125 g/ha: 125 g ai/ha, visual injury after 10 days, 0 to 100 scale, 0 is no effect, 100 is complete control; for pest or weed control at 500 g/ha: 500 g ai/ha, 0 to 100 scale (0 no effect, 100 complete control), 10 days
Summary of the method: as §1

[8] = system: wheat; assay: Test A preemergence; format: in vivo, Triticum aestivum; conditions: Triticum aestivum, pre-emergence, 240 h, read-out: Plant response rating, Wheat; for plant injury at 125 g/ha: 125 g ai/ha, visual injury after 10 days, 0 to 100 scale, 0 is no effect, 100 is complete control; for plant injury at 500 g/ha: 500 g ai/ha, 0 to 100 scale (0 no effect, 100 complete control), 10 days
Summary of the method: as §1

[9] = system: goosegrass; assay: Test A postemergence; format: in vivo, Eleusine indica; conditions: Eleusine indica, post-emergence, 240 h; for pest or weed control at 125 g/ha: 125 g ai/ha; for pest or weed control at 500 g/ha: 500 g ai/ha
Summary of the method: as §1

[10] = system: horseweed; assay: Test A postemergence; format: in vivo, Erigeron canadensis; conditions: Erigeron canadensis, post-emergence, 240 h, postemergence, 10 days, 0 to 100 scale (0 no effect, 100 complete control); for pest or weed control at 125 g/ha: 125 g ai/ha; for pest or weed control at 500 g/ha: 500 g ai/ha
Summary of the method: as §1

[11] = system: blackgrass; assay: Test A postemergence; format: in vivo, Alopecurus myosuroides; conditions: Alopecurus myosuroides, post-emergence, 240 h; for pest or weed control at 125 g/ha: 125 g ai/ha; for pest or weed control at 500 g/ha: 500 g ai/ha
Summary of the method: as §1

[12] = system: corn; assay: Test A postemergence; format: in vivo, Zea mays; conditions: Zea mays, post-emergence, 240 h; for Corn plant response rating (crop injury, 0 = no effect, 100 = complete kill) at 500 g/ha: 500 g ai/ha
Summary of the method: as §1

[13] = system: goosegrass; assay: Test A preemergence; format: in vivo, Eleusine indica; conditions: Eleusine indica, pre-emergence, 240 h, read-out: Plant response rating, Goosegrass; for pest or weed control at 125 g/ha: 125 g ai/ha, visual injury after 10 days, 0 to 100 scale, 0 is no effect, 100 is complete control; for pest or weed control at 500 g/ha: 500 g ai/ha, 0 to 100 scale (0 no effect, 100 complete control), 10 days
Summary of the method: as §1

[14] = postemergence, 10 days, visual injury, 0 to 100 scale (0 no effect, 100 complete control), read-out: Plant response rating, Foxtail, Giant
[15] = postemergence, 10 days, visual injury, 0 to 100 scale (0 no effect, 100 complete control), read-out: Plant response rating, Pigweed, Palmer
[16] = postemergence, 10 days, visual injury, 0 to 100 scale (0 no effect, 100 complete control), read-out: Plant response rating, Goosegrass
[17] = visual injury, read-out: Plant response rating, Horseweed
[18] = postemergence, 10 days, visual injury, 0 to 100 scale (0 no effect, 100 complete control), read-out: Plant response rating, Blackgrass
[19] = postemergence, 10 days, visual injury, 0 to 100 scale (0 no effect, 100 complete control)
[20] = Postemergence, 0 to 100 scale, read-out: Plant response rating, Blackgrass
[21] = 125 g ai/ha, postemergence, 10 days, visual injury, 0 to 100 scale (0 no effect, 100 complete control)

Structure (SMILES) | pest or weed control at 500 g/ha [1, 14] [%] | pest or weed control at 125 g/ha [2] [%] | pest or weed control at 500 g/ha [2] [%] | pest or weed control at 500 g/ha [3, 15] [%] | pest or weed control at 250 g/ha [4] [%] | pest or weed control at 125 g/ha [5] [%] | pest or weed control at 500 g/ha [5] [%] | Corn plant response rating (crop injury, 0 = no effect, 100 = complete kill) at 125 g/ha [6] [%] | Corn plant response rating (crop injury, 0 = no effect, 100 = complete kill) at 500 g/ha [6] [%] | pest or weed control at 125 g/ha [7] [%] | pest or weed control at 500 g/ha [7] [%] | plant injury at 125 g/ha [8] [%] | plant injury at 500 g/ha [8] [%] | pest or weed control at 500 g/ha [9, 16] [%] | pest or weed control at 500 g/ha [10, 17] [%] | Corn plant response rating (crop injury, 0 = no effect, 100 = complete kill) at 500 g/ha [12, 19] [%] | pest or weed control at 125 g/ha [13] [%] | pest or weed control at 500 g/ha [13] [%] | pest or weed control at 125 g/ha [1, 14] [%] | pest or weed control at 125 g/ha [9, 16] [%] | further results
Cc1ccc(-n2cnc(C3CCC3)n2)cc1C(=O)N1C[C@H](C)Oc2c(Cl)cccc21 [Compound 96, [(2S)-8-Chloro-2,3-dihydro-2-methyl-4H-1,4-benzoxazin-4-yl][5-(3-cyclobutyl-1H-1,2,4-triazol-1-yl)-2-methylphenyl]methanone] | 90 | 100 | 100 | 90 | 60 | 30 | 30 | 30 | 50 | 100 | 100 | 20 | 50 | 60 | 80 | 60 | 100 | 100 | – | – | pest or weed control at 125 g/ha ([1]; postemergence, 10 days, 0 to 100 scale (0 no effect, 100 complete control), read-out: Foxtail, Giant plant response rating): 90%; pest or weed control at 125 g/ha ([3]; postemergence, 10 days, 0 to 100 scale (0 no effect, 100 complete control), read-out: Pigweed, Palmer plant response rating): 90%; pest or weed control at 125 g/ha ([9]; postemergence, 10 days, 0 to 100 scale (0 no effect, 100 complete control), read-out: Goosegrass plant response rating): 30%; pest or weed control at 125 g/ha ([10]; read-out: Horseweed plant response rating): 40%; pest or weed control at 125 g/ha ([11]; postemergence, 10 days, 0 to 100 scale (0 no effect, 100 complete control), read-out: Blackgrass plant response rating): 50%; pest or weed control at 500 g/ha [11, 18]: 90%; plant injury at 125 g/ha ([12]; 125 g ai/ha, postemergence, 10 days, 0 to 100 scale (0 no effect, 100 complete control), read-out: Corn plant response rating): 10%
Cc1ncn(-c2ccc(C)c(C(=O)N3C[C@H](C)Oc4c(Cl)cccc43)c2)n1 (single isomer, unassigned) [Compound 74] | 90 | 100 | 100 | 70 | 10 | 0 | 100 | 40 | 90 | 100 | 100 | 20 | 90 | 0 | 0 | 90 | 100 | 100 | 90 | 0 | pest or weed control at 125 g/ha [10, 17]: 0%; pest or weed control at 125 g/ha [11, 18]: 70%; pest or weed control at 500 g/ha [11, 20]: 90%; Corn plant response rating (crop injury, 0 = no effect, 100 = complete kill) at 125 g/ha [12, 21]: 60%
Cc1cccc2c1O[C@@H](C)CN2C(=O)c1cccc(-n2cnc(Br)n2)c1 [Compound 61, [3-(3-Bromo-1H-1,2,4-triazol-1-yl)phenyl][(2S)-2,3-dihydro-2,8-dimethyl-4H-1,4-benzoxazin-4-yl]methanone] | – | 90 | 100 | – | 0 | 0 | 40 | 0 | 0 | 90 | 90 | 0 | 20 | – | – | – | 90 | 90 | 60 | 10 | pest or weed control at 500 g/ha ([1]; Postemergence, 0 to 100 scale, read-out: Plant response rating, Foxtail, Giant): 80%; pest or weed control at 125 g/ha [3, 15]: 40%; pest or weed control at 500 g/ha ([3]; Postemergence, 0 to 100 scale, read-out: Plant response rating, Pigweed, Palmer): 50%; pest or weed control at 500 g/ha ([9]; Postemergence, 0 to 100 scale, read-out: Plant response rating, Goosegrass): 50%; pest or weed control at 125 g/ha [11, 18]: 20%; pest or weed control at 500 g/ha [11, 20]: 40%; Corn plant response rating (crop injury, 0 = no effect, 100 = complete kill) at 125 g/ha [12, 21]: 10%; Corn plant response rating (crop injury, 0 = no effect, 100 = complete kill) at 500 g/ha ([12]; Postemergence, 0 to 100 scale): 10%
